Reference: ChEMBL document CHEMBL1201862, “PubChem BioAssay data set” (2004)
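Cultured in 96-well plates, cells were exposed to test compound for 48 hours across five concentrations. Abbreviation: GI50, concentration required for 50% inhibition of growth.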 Active and inactive are the calls of the source. No stated cut-off is given here; in the data, active = GI50 up to about 1.1 µM and inactive = higher.

Assays:
Test in all cases: NCI tumour cell line growth inhibition, 48 h
786-0 = test system: 786-0
A498 = test system: A498
COLO 205 = test system: COLO 205
HOP-62 = test system: HOP-62
Hs-578T = test system: Hs-578T
IGROV-1 = test system: IGROV-1
MOLT-4 = test system: MOLT-4
NCI-H226 = test system: NCI-H226
NCI-H522 = test system: NCI-H522
NCI/ADR-RES = test system: NCI/ADR-RES
OVCAR-5 = test system: OVCAR-5
PC-3 = test system: PC-3
RPMI-8226 = test system: RPMI-8226
SK-MEL-28 = test system: SK-MEL-28
SK-MEL-5 = test system: SK-MEL-5
SN12C = test system: SN12C
SNB-19 = test system: SNB-19
U-251 = test system: U-251
UACC-62 = test system: UACC-62
SK-OV-3 = test system: SK-OV-3

| SMILES | GI50 (786-0) | GI50 (A498) | GI50 (COLO 205) | GI50 (HOP-62) | GI50 (Hs-578T) | GI50 (IGROV-1) | GI50 (MOLT-4) | GI50 (NCI-H226) | GI50 (NCI-H522) | GI50 (NCI/ADR-RES) | GI50 (OVCAR-5) | GI50 (PC-3) | GI50 (RPMI-8226) | GI50 (SK-MEL-28) | GI50 (SK-MEL-5) | GI50 (SN12C) | GI50 (SNB-19) | GI50 (U-251) | GI50 (UACC-62) | GI50 (SK-OV-3) |
| --- | --- | --- | --- | --- | --- | --- | --- | --- | --- | --- | --- | --- | --- | --- | --- | --- | --- | --- | --- | --- |
| CS/C(C#N)=C(\C#N)SC | 4.89 µM (inactive) | 23 µM (inactive) | 3.06 µM (inactive) | 16.6 µM (inactive) | 31.8 µM (inactive) | 6.25 µM (inactive) | 0.233 µM (active) | 2.55 µM (inactive) | 1.42 µM (inactive) | 18.8 µM (inactive) | 26.3 µM (inactive) | 15.2 µM (inactive) | 1.88 µM (inactive) | 10.7 µM (inactive) | 18.2 µM (inactive) | 11.2 µM (inactive) | 25.7 µM (inactive) | 4.45 µM (inactive) | 2.94 µM (inactive) | – |
| Cc1cc(C)c(S(=O)(=O)N2CCCN(S(=O)(=O)c3c(C)cc(C)cc3C)OCCCO2)c(C)c1 | > 100 µM (inactive) | > 100 µM (inactive) | > 100 µM (inactive) | > 100 µM (inactive) | > 100 µM (inactive) | > 100 µM (inactive) | > 100 µM (inactive) | > 100 µM (inactive) | > 100 µM (inactive) | > 100 µM (inactive) | > 100 µM (inactive) | 89.3 µM (inactive) | – | > 100 µM (inactive) | > 100 µM (inactive) | > 100 µM (inactive) | > 100 µM (inactive) | > 100 µM (inactive) | > 100 µM (inactive) | > 100 µM (inactive) |
| CC(C)(C)OC(=O)Cn1ncn(NC(=O)Cc2ccccc2)c1=S | > 10 µM (inactive) | > 10 µM (inactive) | > 10 µM (inactive) | > 10 µM (inactive) | > 10 µM (inactive) | > 10 µM (inactive) | > 10 µM (inactive) | – | > 10 µM (inactive) | > 10 µM (inactive) | > 10 µM (inactive) | > 10 µM (inactive) | – | > 10 µM (inactive) | > 10 µM (inactive) | > 10 µM (inactive) | > 10 µM (inactive) | > 10 µM (inactive) | > 10 µM (inactive) | > 10 µM (inactive) |
| OC(Cc1cnnc2ccccc12)C(Cl)(Cl)Cl (stereo not given) | > 10 µM (inactive) | > 10 µM (inactive) | > 10 µM (inactive) | > 10 µM (inactive) | > 10 µM (inactive) | > 10 µM (inactive) | > 10 µM (inactive) | > 10 µM (inactive) | > 10 µM (inactive) | > 10 µM (inactive) | – | > 10 µM (inactive) | > 10 µM (inactive) | > 10 µM (inactive) | > 10 µM (inactive) | > 10 µM (inactive) | > 10 µM (inactive) | > 10 µM (inactive) | > 10 µM (inactive) | > 10 µM (inactive) |
| O=C(Nc1ccc(Cl)cc1)Oc1ccc(C(=S)Nc2ccc(Br)cc2)cc1 | 16 µM (inactive) | 19.1 µM (inactive) | 9.75 µM (inactive) | 39.3 µM (inactive) | 57.1 µM (inactive) | 2.05 µM (inactive) | 4.44 µM (inactive) | – | 10.4 µM (inactive) | 9.53 µM (inactive) | 4.05 µM (inactive) | 21.1 µM (inactive) | 23.5 µM (inactive) | 10.4 µM (inactive) | 6.1 µM (inactive) | – | 34.4 µM (inactive) | 20.5 µM (inactive) | 1.63 µM (inactive) | 26.5 µM (inactive) |
| CCN1CCN(c2nc3ccccc3nc2C(=O)c2ccc(OC)cc2)CC1 | 19.4 µM (inactive) | 37.1 µM (inactive) | > 100 µM (inactive) | 16 µM (inactive) | 38.6 µM (inactive) | 75.9 µM (inactive) | 28.8 µM (inactive) | – | 53.6 µM (inactive) | 45.1 µM (inactive) | 56.8 µM (inactive) | 78 µM (inactive) | 7.19 µM (inactive) | 36 µM (inactive) | 37.2 µM (inactive) | – | 90.2 µM (inactive) | 39.4 µM (inactive) | 20.6 µM (inactive) | > 100 µM (inactive) |
| CCOC(=O)N1CCC2(CC1)C[C@](Sc1ccccc1)(C(C)=O)[C@H](C)O2 | > 100 µM (inactive) | > 100 µM (inactive) | > 100 µM (inactive) | > 100 µM (inactive) | > 100 µM (inactive) | > 100 µM (inactive) | > 100 µM (inactive) | > 100 µM (inactive) | > 100 µM (inactive) | > 100 µM (inactive) | > 100 µM (inactive) | > 100 µM (inactive) | > 100 µM (inactive) | > 100 µM (inactive) | > 100 µM (inactive) | – | > 100 µM (inactive) | > 100 µM (inactive) | > 100 µM (inactive) | > 100 µM (inactive) |
